Entries after “also recorded” stand apart in the source; their conditions may differ. Peptide text beside a SMILES is read from it. * marks the point of attachment. Cbz = O=C(OCc1ccccc1)*
What was measured:
ma/ma mice = assay: Topical LGK974 cream on Tmem79 ma/ma mice, AD phenotypes; assay type: in vivo, mouse; conditions: topical cream twice daily, dose to be determined empirically
Source text: PORCUPINE (PORCN) is an ER acyl-transferase specifically required for biogenesis and secretion of all WNT proteins. A diverse group of small molecules, referred to as IWP2, LGK974, and C59, each binds to and inhibits PORCN, thereby blocking WNT production. LGK974 and C59 are in phase I clinical trials for cancers that rely on autocrine or local WNT production (Proffitt, K. D., et al., Cancer Res, 2013, 73 (2): p. 502-7; Jiang, X., et al., Proc Natl Acad Sci USA, 2013. 110 (31): p. 12649-54). […] 111 (6): p. 2325-30; Apelian, H. M. C., NJ), Coffin-beach, David (Kendall Park, NJ), Huq, Abu S. (Plainsboro, NJ), Pharmaceutical composition of florfenicol, in U.S. Pat. No. 5,082,862, S. Corporation, January 1992; Malook, S. U. N., GB5), Boon, Peter F. G. (Horsham, GB2), Morgan, James P. (Navan, IE), Method of reducing the swelling or pain associated with antibiotics compositions, in U.S. Pat. No. 4,772,460, L. Bimeda Research and Development, September 1988.). […]
ma ma mice in C57BL/6 have been used as a reliable model for human AD and will be housed under the SPF (specific pathogen-free) conditions at BCH, and analyzed at 2, 4, and 8 weeks for skin phenotypes as described (Sasaki, T., et al., J Allergy Clin Immunol, 132 (5): p. 1111-1120 e4, 2013; Saunders, S. P., et al., J Allergy Clin Immunol, 132 (5): p. 1121-9, 2013). […]

[1] = system: phosphorylated LRP6 and phosphorylated DVL; assay: Immunoblot of phosphorylated LRP6 and DVL2 in T79KO and ZRKO cells; assay type: cell-based, human
Method: (§1) Cell culture, immunofluorescence, RNA interference and dual luciferase assay. HEK293T cells (ATCC #CRL-11268) and its derivatives were maintained in DMEM supplemented with 10% FBS, penicillin, and streptomycin. ZRKO (ZNRF3 and RNF43 double knockout) cell line was a gift from F. Cong. The FZD null cell line (Fz1-10 knockout) was a gift from B. Vanhollebeke. For immunofluorescence, HEK293T cells were grown on poly-L-lysine-coated glass coverslips. Cells were transfected with Snap-FZD5 and after 24 hours washed with PBS and fixed with 4% paraformaldehyde for 10 min at room temperature. The cells were labeled with 1 μM SNAP-Surface® 488 (BioLabs) for 15 min at room temperature. To visualize endogenous TMEM79, PDI, TGN46 and EEA1, cells were permeabilized with 0.2% Triton X-100 in PBS for 5 min, blocked with 10% normal goat serum and then incubated with respective antibodies for 1 hour at room temperature followed by incubation with secondary antibodies (Alexa Fluor 594 goat anti-rabbit immunoglobulin and Alexa Fluor 488 goat anti-mouse immunoglobulin, Invitrogen). Cells were mounted in Prolong Diamond Antifade Mountant with DAPI (Thermofisher Scientific) and imaged using a Zeiss LSM700 confocal microscope. siRNA transfection was done using Lipofectamine RNAiMAX (Thermofisher Scientific, #13778075). Duplex siRNAs targeting TMEM79 and ZNRF3 were purchased from Sigma. […]

Wnt/β-catenin signaling = assay: Top-Flash dual luciferase reporter assay; assay type: cell-based, human; conditions: HEK293T cells
Method: as §1

β-catenin = assay: Immunoblot of cytosolic β-catenin after siRNA depletion of TMEM79 or ZNRF3; assay type: cell-based, human; conditions: HEK293T cells
Method: as §1

FZD5 = assay: Immunoblot of FZD5 (immature and mature forms) with lysosome/proteasome inhibitors; assay type: cell-based, human; conditions: HEK293T cells; for TMEM79-induced degradation of immature FZD5: TMEM79 overexpressed; for levels of immature and mature forms of FZD5: absence or presence of TMEM79
Method: Cell culture, immunofluorescence, RNA interference and dual luciferase assay. HEK293T cells (ATCC #CRL-11268) and its derivatives were maintained in DMEM supplemented with 10% FBS, penicillin, and streptomycin. ZRKO (ZNRF3 and RNF43 double knockout) cell line was a gift from F. Cong. The FZD null cell line (Fz1-10 knockout) was a gift from B. Vanhollebeke. For immunofluorescence, HEK293T cells were grown on poly-L-lysine-coated glass coverslips. Cells were transfected with Snap-FZD5 and after 24 hours washed with PBS and fixed with 4% paraformaldehyde for 10 min at room temperature. The cells were labeled with 1 μM SNAP-Surface® 488 (BioLabs) for 15 min at room temperature. To visualize endogenous TMEM79, PDI, TGN46 and EEA1, cells were permeabilized with 0.2% Triton X-100 in PBS for 5 min, blocked with 10% normal goat serum and then incubated with respective antibodies for 1 hour at room temperature followed by incubation with secondary antibodies (Alexa Fluor 594 goat anti-rabbit immunoglobulin and Alexa Fluor 488 goat anti-mouse immunoglobulin, Invitrogen). Cells were mounted in Prolong Diamond Antifade Mountant with DAPI (Thermofisher Scientific) and imaged using a Zeiss LSM700 confocal microscope. siRNA transfection was done using Lipofectamine RNAiMAX (Thermofisher Scientific, #13778075). Duplex siRNAs targeting TMEM79 and ZNRF3 were purchased from Sigma. The sequences are as follows: TMEM79-1, 5-[…]dTdT-3 (SEQ ID NO: 19), TMEM79-2, 5-CCAUGAGUUCCCGCCUGAUdTdT-3 (SEQ ID NO: 20). ZNRF3, 5-[…]dTdT-3 (SEQ ID NO: 21). For Top-Flash reporter assay, cells were transduced sequentially with Supertopflash (7TFP, Addgene) and EF1α-Renilla lentiviruses. Cells were plated in 24 well plates and transfected the following day in triplicate using FuGENE HD (Promega, #E2312). Dual luciferase reporter assays were performed using Dual-Luciferase® Reporter Assay System (Promega, #E1960) according to manufacturer's instruction. Representative results are shown from one of three (or more) independent experiments. Immunoblotting, cell surface protein labeling and immunoprecipitation. Total cell lysates in NP40 lysis buffer (50 mM Tris, pH 7.5, 150 mM NaCl, 1 mM EDTA, 1% NP40, 10% glycerol, 10 mM NaF, and protease inhibitor cocktail, pH=7.4) were prepared by gentle rotating at 4° C., followed by centrifugation at top speed for 10 min at 4° C. Samples were run on a SDS-PAGE and transferred to Immobilon-P membrane. To isolate the cytoplasmic fraction of β-catenin, cells were incubated with 0.015% digitonin (in PBS supplemented protease inhibitor cocktail) by gentle rotating at 4° C. for 10 min. Indirect immunochemistry using a secondary antibody conjugated with horseradish peroxidase was visualized using ECL reagents on LAS-4000 imager (FujiFilm). Cell surface proteins were biotinylated using EZ-LinkTMSulfo-NHS—SS-Biotin (Thermo Fisher Scientific) according to manufacturer's protocol. Biotinylated proteins were enriched by Pierce® Streptavidin agarose resins. For immunoprecipitation, transfected HEK293T cells were lysed in NP40 lysis buffer. Cell lysates were incubated with antibody conjugated Agarose beads (Pierce™ Anti-c-Myc Agarose, #20168; Pierce™ Anti-HA Agarose, #26181; Anti-Flag M2 affinity gel, Sigma, A2220; Anti-V5 Agarose Affinity Gel, Sigma, A7345) at 4° C. over night. Beads were washed with lysis buffer 5 times and proteins were eluted in 2× sample buffer.

Cc1cc(-c2ncc(CC(=O)Nc3ccc(-c4cnccn4)cn3)cc2C)ccn1 [LG974]
AD phenotypes of ma mice (ma/ma mice): ameliorated

Cc1ccc2nc(NC(=O)CSc3nc4c(c(=O)n3-c3ccccc3)SCC4)sc2c1 [IWP-2]
elevated levels of phosphorylated LRP6 and phosphorylated DVL [1]: inhibited; also recorded: suppressed | TOP-Flash reporter induction by USP8C (Wnt/β-catenin signaling; USP8C transfected): abolished; also recorded: inhibited | elevated levels of TOP-Flash caused by depletion of TMEM79 or ZNRF3 (Wnt/β-catenin signaling; siRNA depletion): abolished; also recorded: suppressed | elevated levels of β-catenin protein caused by depletion of TMEM79 or ZNRF3 (β-catenin): prevented; also recorded: suppressed

CO/C1=C\C(C)=C\[C@@H](C)[C@@H](O)[C@@H](C)C/C(C)=C/C=C/[C@H](OC)[C@@H]([C@@H](C)[C@@H](O)[C@H](C)[C@@]2(O)C[C@@H](O)[C@H](C)[C@@H](C(C)C)O2)OC1=O [Bafilomycin A1]
TMEM79-induced lysosomal degradation of FZD5 (FZD5): prevented | TMEM79-induced degradation of immature FZD5 (FZD5): inhibited | TMEM79-induced degradation of immature FZD5 (FZD5; listed as Baf A1): blocked | levels of immature and mature forms of FZD5 (FZD5): elevated levels | levels of immature and mature forms of FZD5 (FZD5; listed as BAF A1): increased

CC(C)C[C@@H](C=O)NC(=O)[C@H](CC(C)C)NC(=O)[C@H](CC(C)C)NC(=O)OCc1ccccc1 [MG132] (Cbz-Leu-Leu-Leu-aldehyde)
levels of immature and mature forms of FZD5 (FZD5): did not affect
